Reference: PMC11395145, “The Archetypal Gamma-Core Motif of Antimicrobial Cys-Rich Peptides Inhibits H^+-ATPases in Target Pathogens” (International Journal of Molecular Sciences, 2024)
Where a SMILES comes first, the peptide text is derived from it. Bridges are numbered along the chain shown (N, C = ends).

How the values were obtained:
[1] = system: Candida albicans ATCC 10231; assay: Microbicidal (spread-plate cell viability) assay, candidacidal activity; format: cell-based; conditions: for microbicidal (candidacidal) activity, in words: 90 min, 37 °C, Tris buffer pH 7.4, 10^6 cells/mL, CFU plating
Protocol: (§1) First, we tested the antimicrobial activity of Kal-1 and a shorter Kal-1-derived peptide (Kdp15), both containing the complete γ-core signature of human lactoferrin, against C. albicans and P. aeruginosa. Microbicidal (cidal) activity was determined after 90 min of incubation (37 °C; pH 7.4) with a range of concentrations of each hLf-derived peptide.
(§2) Figure 1 Cell viability and membrane permeabilization assays. C. albicans or P. aeruginosa (10^6 cells/mL) were incubated (90 min, 37 °C) with each peptide/protein at the indicated concentrations. Aliquots were plated on SDA or […], and colonies were counted after 24–48 h (C. albicans) or 24 h (P. aeruginosa). At each point, samples were stained with propidium iodide (PI) and intracellular PI incorporation, indicative of membrane permeabilization, was quantified by flow cytometry. The relative cell viability (blue lines) and cellular permeabilization (red lines) were calculated as the percentage of untreated cells. Human lactoferrin (hLf) and the peptide Lfpep were used as negative and positive controls of cellular permeabilization, respectively.
(§3) Microbial susceptibility to the peptides was determined in a spread-plate assay as described previously. Briefly, two-fold serially diluted peptides were incubated (37 °C) with approximately 10^6 cells/mL in Tris buffer (10 mM Tris-HCl, pH 7.4). After 90 min of incubation with the peptides, aliquots were removed and plated in duplicate on an appropriate agar plate for each species (SDA for C. albicans, TSA for P. aeruginosa). The plates were incubated for 24–48 h at 30 °C (C. albicans) or 24 h at 37 °C (P. aeruginosa) for enumeration. The cell viability values, expressed as colony forming units (CFUs), were determined relative to incubation without added peptides and represent the mean ± standard deviation (±SD) of at least three independent determinations. For inhibition assays, the cell suspensions were preincubated (15 min at 37 °C) with the corresponding inhibitors before the addition of peptides. Water-insoluble inhibitors were prepared in DMSO, such that the final assay volume was ≤1%. Other specific experimental inhibition conditions are described where appropriate. The IC50 value is expressed as the concentration that caused 50% reduction in viable counts.

[2] = system: Pseudomonas aeruginosa 10145 (PAO1); assay: Microbicidal (spread-plate cell viability) assay, pseudomonacidal activity; format: cell-based; conditions: for microbicidal (pseudomonacidal) activity, in words: 90 min, 37 °C, Tris buffer pH 7.4, 10^6 cells/mL, CFU plating
Protocol: as §1, §2, §3

C. albicans cells [3] = assay: Oxygen consumption measurement (Clark-type electrode); format: cell-based, Candida albicans; conditions: 5 × 10^6 cells/mL, peptides at IC50, piericidin A 32 μM, at least 30 min, 25 °C
Protocol: (§4) Figure 3 Effect of cellular respiration on the microbicidal activity of hLf γ-core-containing peptides. (A,C) Oxygen consumption was measured in C. albicans and P. aeruginosa cellular suspensions in the absence (control) or the presence of kaliocin-1 (Kal-1), Kdp15, or human lactoferrin (hLf), and piericidin A (positive control). (B,D) Effect of cellular respiration on the microbicidal activity of hLf γ-core-containing peptides. Cells (10^6 cells/mL) were pre-incubated (15 min, 37 °C) with 32 μM piericidin A and incubated for 90 min at 37 °C with the peptides hLf or BM2. The cell viability was determined by means of the plate counting method. The results are the mean ± SD from duplicates of at least three independent experiments. * p < 0.05, ** p < 0.01, and *** p < 0.001 were used.
(§5) C. albicans or P. aeruginosa cells were grown to the mid-logarithmic phase, washed twice in Tris buffer, and resuspended in the same buffer, as described in [9, 10]. Briefly, cells (5 × 10^6 cells/mL) were pre-incubated for 15 min at 37 °C with the peptides (IC50). […] Oxygen consumption was measured using a Clark-type oxygen electrode (Dual digital-model 20, Rank Brothers Ltd., Cambridge, UK) in a closed jacketed chamber maintained at 25 °C. […] The viability of the cells was determined at 30 min by removing aliquots from the oxygen chambers and plating the subsequent dilutions on SDA or TSA plates.

P. aeruginosa cells = assay: as above; format: cell-based, Pseudomonas aeruginosa; conditions: 5 × 10^6 cells/mL, peptides at IC50, piericidin A 32 μM, at least 30 min, 25 °C
Protocol: as §4, §5

[4] = system: Candida albicans ATCC 10231; conditions: used in control assays; cited from earlier work
Protocol: First, we tested the antimicrobial activity of Kal-1 and a shorter Kal-1-derived peptide (Kdp15), both containing the complete γ-core signature of human lactoferrin, against C. albicans and P. aeruginosa. Microbicidal (cidal) activity was determined after 90 min of incubation (37 °C; pH 7.4) with a range of concentrations of each hLf-derived peptide. The hLf γ-core-containing peptides were microbicidal in a concentration-dependent way (Figure 1). […] The IC50 es ...

C. albicans cells [5] = assay: Measurement of intracellular ATP (BacTiter-Glo); format: cell-based, Candida albicans; conditions: C. albicans 10^6 cells/mL, candidacidal concentration, 90 min, 37 °C; BM2 0.25 μM
Protocol: Total ATP was measured by using the BacTiter-Glo^TM Microbial Cell Viability Assay (Promega Co., Madison, WI, USA) according to the manufacturer’s instructions. […] Aliquots (100 μL) were incubated (90 min at 37 °C) with kaliocin-1, Kdp15, or human lactoferrin and the BM2 peptide (positive control). One hundred microliters of incubation mix was transferred into a 96-well opaque white plate, mixed with an equal volume of the BacTiter-Glo reagent, and incubated for 15 min in the dark. The reagent used a thermostable luciferase to produce luminescence in an ATP-dependent manner. The emitted luminescence was detected by using a Varioskan Flash multimode reader (Thermo Scientific, Waltham, MA, USA) with a 10 s of shaking and 1 s integration time. A calibration curve was prepared for each experiment, with ATP standards ranging from 1 to 1000 nM. For assays performed in the presence of the BM2 peptide, samples were preincubated with 0.25 μM BM2 for 30 min at 37 °C. All the tests were performed in triplicate at least four times.

[6] = concentration range 0 to 100 μM

## CC[C@H](C)[C@@H]1NC(=O)[C@H](C(C)C)NC(=O)[C@H](CC(C)C)NC(=O)CNC(=O)[C@H](C(C)C)NC(=O)[C@@H]2CCCN2C(=O)[C@H]([C@@H](C)CC)NC(=O)[C@@H]2CSSC[C@@H]3NC(=O)[C@H](C(C)C)NC(=O)CNC(=O)[C@H](CC(N)=O)NC(=O)[C@@H](NC(=O)[C@H](CO)NC(=O)[C@H](C)NC(C)=O)CSSC[C@H](NC(=O)[C@H](C)NC(=O)[C@H](CO)NC(=O)[C@H]([C@@H](C)O)NC(=O)CNC(=O)[C@H](CSSC[C@@H](C(=O)N[C@@H](CCCNC(=N)N)C(=O)N[C@@H](CC(N)=O)C(=O)N4CCC[C@H]4C(=O)N[C@@H](CO)C(=O)NCC(N)=O)NC(=O)[C@H](Cc4ccc(O)cc4)NC(=O)CNC1=O)NC(=O)[C@@H]1CCCN1C(=O)[C@@H]1CCCN1C(=O)[C@H](CCSC)NC(=O)[C@H](CCC(=O)O)NC(=O)[C@H](Cc1ccccc1)NC(=O)[C@@H]1CCCN1C(=O)[C@H](CO)NC3=O)C(=O)N[C@@H](CCCNC(=N)N)C(=O)N2 [PA1b] (Ac-ASCNGVCSPFEMPPCGTSACRCIPVGLVIGYCRNPSG-NH2; disulfide 3-20, 7-22, 15-32)
[1]
  microbicidal (candidacidal) activity, in words: showed candidacidal activity
[2]
  microbicidal (pseudomonacidal) activity, in words: not pseudomonacidal

## C/C=C(\C)[C@H](O)[C@H](C)/C=C(C)/C=C/C/C(C)=C/Cc1nc(OC)c(OC)c(O)c1C [piericidin A, reference compound]
C. albicans cells [3]
  oxygen consumption of C. albicans in presence of the substance: inhibited
P. aeruginosa cells
  oxygen consumption of P. aeruginosa in presence of the substance: inhibited

## CAGTGENKC [Kdp9]
[1]; [6]
  antimicrobial activity, in words: not detected
[2]; [6]
  antimicrobial activity, in words: not detected

## D-NH2-RRRFWWFRRR-CONH2 [BM2, reference compound]
[1]; 0.25 μM BM2, cells pre-incubated 15 min, 37 °C with 16 μg/mL oligomycin A
  decrease of candidacidal activity by oligomycin A: ~ 62%
[1]; Tris buffer with 50 mM KCl vs without
  effect of high external K^+ on candidacidal activity: decreased
[1]; cells pre-incubated 15 min, 37 °C with 32 μM piericidin A, then 90 min with peptide
  effect of respiration inhibition (piericidin A) on candidacidal activity: substantially inhibited
[1]; cells pre-incubated 15 min with 10 mM TEA^+
  effect of Tok1p K^+ channel block (TEA^+) on candidacidal activity: significantly (p < 0.001) inhibited
[4]
  previously reported microbicidal concentration (organism not given): 0.25 µM
C. albicans cells [5]
  increment in intracellular ATP (iATP) level compared to untreated control: ~ 9 fold

## GSKKPVPIIYCNRRTGKCQRM [Thanatin, complete 21-aa antimicrobial peptide from Podisus maculiventris (insect)]
[1]
  microbicidal (candidacidal) activity, in words: most potent
[2]
  microbicidal (pseudomonacidal) activity, in words: most potent

## HCKNKEHLRSGRCRDDFRCWCT [PvD1, 22-aa γ-core fragment of defensin PvD1 from Phaseolus vulgaris (bean)]
[2]
  microbicidal (pseudomonacidal) activity, in words: showed pseudomonacidal activity
